In patent US20260125360A1, “HERBICIDAL IMIDAZOLE COMPOUNDS” (SYNGENTA CROP PROTECTION AG, priority 2022, published 2026):

Legend:
Type in all cases: in vivo
Conditions in all cases: 250 g/ha, evaluated after 13 days
[1] = system: Echinochloa crus-galli (ECHCG); assay: Pre-emergence herbicide glasshouse test
Method in brief: (§1)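 Damage rated 13 days after spraying on a five-point scale (1=0–20% … 5=81–100%). Compound applied at 250 g/ha by default, as aqueous spray from acetone/water 50:50 plus 0.5% Tween 20, to pots one day post-sowing (pre) or after 8 days of growth (post). Plants kept at 24/16 °C, 14 h light, 65% humidity, watered twice daily.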

[2] = system: Amaranthus retoflexus (AMARE); assay: Pre-emergence herbicide glasshouse test
Method in brief: as §1

[3] = system: Ipomoea hederacea (IPOHE); assay: Pre-emergence herbicide glasshouse test
Method in brief: as §1

[4] = system: Amaranthus palmeri (AMAPA); assay: Pre-emergence herbicide glasshouse test
Method in brief: as §1

[5] = system: Echinochloa crus-galli (ECHCG); assay: Post-emergence herbicide glasshouse test
Method in brief: as §1

[6] = system: Amaranthus retoflexus (AMARE); assay: Post-emergence herbicide glasshouse test
Method in brief: as §1

[7] = system: Ipomoea hederacea (IPOHE); assay: Post-emergence herbicide glasshouse test
Method in brief: as §1

[8] = system: Amaranthus palmeri (AMAPA); assay: Post-emergence herbicide glasshouse test
Method in brief: as §1

Structure (SMILES)	percentage damage caused to the plant, ECHCG (five-point scale) [1]	percentage damage caused to the plant, AMARE (five-point scale) [2]	percentage damage caused to the plant, IPOHE (five-point scale) [3]	percentage damage caused to the plant, AMAPA (five-point scale) [4]	percentage damage caused to the plant, ECHCG (five-point scale) [5]	percentage damage caused to the plant, AMARE (five-point scale) [6]	percentage damage caused to the plant, IPOHE (five-point scale) [7]	percentage damage caused to the plant, AMAPA (five-point scale) [8]
Cc1cc(Cn2cc(C(F)(F)F)nc2-c2cnc(F)c(Cl)c2)ns1 [Compound 1.154]	5 (5=81-100%)	5 (5=81-100%)	5 (5=81-100%)	5 (5=81-100%)	5 (5=81-100%)	5 (5=81-100%)	4 (4=61-80%)	5 (5=81-100%)
Cc1nc(Cn2cc(C(F)(F)F)nc2-c2ccc(S(C)(=O)=O)cc2)no1 [Compound 1.159]	1 (1=0-20%)	5 (5=81-100%)	5 (5=81-100%)	5 (5=81-100%)	2 (2=21-40%)	5 (5=81-100%)	5 (5=81-100%)	5 (5=81-100%)
Cc1nc(Cn2cc(C(F)(F)F)nc2-c2cnc(F)c(Cl)c2)no1 [Compound 1.160]	5 (5=81-100%)	5 (5=81-100%)	5 (5=81-100%)	5 (5=81-100%)	5 (5=81-100%)	5 (5=81-100%)	4 (4=61-80%)	5 (5=81-100%)
Cc1cc(Cn2cc(C(F)(F)F)nc2-c2ccc(S(C)(=O)=O)cc2)ns1 [Compound 1.161]	5 (5=81-100%)	5 (5=81-100%)	5 (5=81-100%)	5 (5=81-100%)	5 (5=81-100%)	5 (5=81-100%)	5 (5=81-100%)	5 (5=81-100%)
Cc1cc(Cn2cc(C(F)(F)F)nc2-c2ccc(F)c(F)c2)ns1 [Compound 1.162]	5 (5=81-100%)	5 (5=81-100%)	3 (3=41-60%)	5 (5=81-100%)	5 (5=81-100%)	5 (5=81-100%)	4 (4=61-80%)	5 (5=81-100%)
Cc1cc(Cn2cc(C(F)(F)F)nc2-c2cnc(F)c(Cl)c2)no1 [Compound 1.163]	5 (5=81-100%)	5 (5=81-100%)	5 (5=81-100%)	5 (5=81-100%)	5 (5=81-100%)	5 (5=81-100%)	4 (4=61-80%)	5 (5=81-100%)
Cc1nnc(Cn2cc(C(F)(F)F)nc2-c2cnc(F)c(Cl)c2)s1 [Compound 1.164]	4 (4=61-80%)	5 (5=81-100%)	5 (5=81-100%)	5 (5=81-100%)	2 (2=21-40%)	5 (5=81-100%)	3 (3=41-60%)	4 (4=61-80%)
Cn1cnc(Cn2cc(C(F)(F)F)nc2-c2cnc(F)c(Cl)c2)n1 [Compound 1.165]	5 (5=81-100%)	5 (5=81-100%)	5 (5=81-100%)	5 (5=81-100%)	5 (5=81-100%)	5 (5=81-100%)	5 (5=81-100%)	5 (5=81-100%)
Cc1noc(Cn2cc(C(F)(F)F)nc2-c2cnc(Cl)c(F)c2)n1 [Compound 1.166]	1 (1=0-20%)	5 (5=81-100%)	5 (5=81-100%)	5 (5=81-100%)	1 (1=0-20%)	4 (4=61-80%)	2 (2=21-40%)	4 (4=61-80%)
Cc1nc(Cn2cc(C(F)(F)F)nc2-c2cnc(Cl)c(F)c2)no1 [Compound 1.167]	5 (5=81-100%)	5 (5=81-100%)	5 (5=81-100%)	5 (5=81-100%)	5 (5=81-100%)	5 (5=81-100%)	4 (4=61-80%)	5 (5=81-100%)
Cc1nc(Cn2cc(C(F)(F)F)nc2-c2ccc(F)c(F)c2)no1 [Compound 1.168]	5 (5=81-100%)	5 (5=81-100%)	5 (5=81-100%)	5 (5=81-100%)	5 (5=81-100%)	5 (5=81-100%)	5 (5=81-100%)	5 (5=81-100%)
Cc1noc(Cn2cc(C(F)(F)F)nc2-c2ccc(F)c(F)c2)n1 [Compound 1.169]	4 (4=61-80%)	5 (5=81-100%)	5 (5=81-100%)	5 (5=81-100%)	3 (3=41-60%)	5 (5=81-100%)	3 (3=41-60%)	5 (5=81-100%)
Cn1cnc(Cn2cc(C(F)(F)F)nc2-c2ccc(S(C)(=O)=O)cc2)n1 [Compound 1.170]	4 (4=61-80%)	5 (5=81-100%)	5 (5=81-100%)	5 (5=81-100%)	2 (2=21-40%)	5 (5=81-100%)	3 (3=41-60%)	5 (5=81-100%)
Cn1ccc(Cn2cc(C(F)(F)F)nc2-c2ccc(S(C)(=O)=O)cc2)n1 [Compound 1.171]	1 (1=0-20%)	4 (4=61-80%)	3 (3=41-60%)	4 (4=61-80%)	1 (1=0-20%)	1 (1=0-20%)	2 (2=21-40%)	1 (1=0-20%)
CCON=Cc1cn(Cc2ncn(C)n2)c(-c2cnc(Cl)c(F)c2)n1 [Compound 1.172]	5 (5=81-100%)	5 (5=81-100%)	5 (5=81-100%)	5 (5=81-100%)	2 (2=21-40%)	3 (3=41-60%)	2 (2=21-40%)	2 (2=21-40%)
Fc1ccc(-c2nc(C(F)(F)F)cn2Cc2ccc(Cl)s2)cc1F [Compound 1.173]	1 (1=0-20%)	5 (5=81-100%)	1 (1=0-20%)	5 (5=81-100%)	2 (2=21-40%)	5 (5=81-100%)	1 (1=0-20%)	4 (4=61-80%)
